Experiments:
[1] = biological target: T1, ATP-dependent translocase ABCB1 (Homo sapiens, UniProt P08183); assay: TP_TRANSPORTER: transepithelial transport of digoxin (apical to basal) (Digoxin: 20-30uM) in MDR1-expressing LLC-GA5-COL150 cell; assay type: functional, cell-based; conditions: pig
[2] = biological target: T1, ATP-dependent translocase ABCB1; assay: TP_TRANSPORTER: transepithelial transport of tacrolimus (apical to basal) (Tacrolimus: 1.38-1.48uM) in MDR1-expressing LLC-GA5-COL150 cell; assay type: functional, cell-based; conditions: pig

T1 sequence (P08183 whole entry): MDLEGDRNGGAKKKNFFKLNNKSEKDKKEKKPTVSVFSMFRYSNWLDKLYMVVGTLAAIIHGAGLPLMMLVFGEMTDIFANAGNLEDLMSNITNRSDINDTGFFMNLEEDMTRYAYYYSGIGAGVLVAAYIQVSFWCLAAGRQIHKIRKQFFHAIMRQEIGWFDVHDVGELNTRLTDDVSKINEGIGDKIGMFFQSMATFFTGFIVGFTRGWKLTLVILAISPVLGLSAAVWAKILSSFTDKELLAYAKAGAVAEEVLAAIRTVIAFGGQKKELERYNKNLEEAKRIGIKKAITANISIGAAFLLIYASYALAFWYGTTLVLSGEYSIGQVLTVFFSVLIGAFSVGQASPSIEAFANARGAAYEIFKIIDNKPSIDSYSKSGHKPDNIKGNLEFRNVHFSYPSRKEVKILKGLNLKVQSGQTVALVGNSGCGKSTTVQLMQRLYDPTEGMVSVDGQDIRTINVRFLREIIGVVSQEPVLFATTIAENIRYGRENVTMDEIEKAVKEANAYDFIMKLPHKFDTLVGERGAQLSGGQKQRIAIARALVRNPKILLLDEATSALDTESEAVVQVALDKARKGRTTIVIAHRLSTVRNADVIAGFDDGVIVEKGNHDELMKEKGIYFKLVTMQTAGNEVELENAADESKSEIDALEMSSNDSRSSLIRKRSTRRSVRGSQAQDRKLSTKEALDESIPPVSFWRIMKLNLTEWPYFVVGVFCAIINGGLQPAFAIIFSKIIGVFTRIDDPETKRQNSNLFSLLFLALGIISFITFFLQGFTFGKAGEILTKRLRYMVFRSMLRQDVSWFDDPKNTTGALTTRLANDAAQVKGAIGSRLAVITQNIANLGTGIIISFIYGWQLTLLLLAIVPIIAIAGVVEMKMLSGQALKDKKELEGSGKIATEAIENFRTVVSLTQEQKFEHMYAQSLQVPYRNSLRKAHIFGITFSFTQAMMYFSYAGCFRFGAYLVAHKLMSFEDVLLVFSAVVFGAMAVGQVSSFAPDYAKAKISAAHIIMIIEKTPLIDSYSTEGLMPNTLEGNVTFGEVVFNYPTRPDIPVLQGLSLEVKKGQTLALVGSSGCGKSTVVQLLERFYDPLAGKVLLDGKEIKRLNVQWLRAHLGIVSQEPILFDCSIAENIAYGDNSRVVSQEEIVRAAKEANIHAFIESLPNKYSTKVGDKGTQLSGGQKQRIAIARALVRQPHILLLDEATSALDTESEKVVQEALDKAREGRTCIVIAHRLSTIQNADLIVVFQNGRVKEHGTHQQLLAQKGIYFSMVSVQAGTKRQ

Activity [1] | Activity [2] | Compound
inhibitor [+] |  | CC[C@H]1OC(=O)[C@H](C)[C@@H](O[C@H]2C[C@@](C)(OC)[C@@H](O)[C@H](C)O2)[C@H](C)[C@@H](O[C@@H]2O[C@H](C)C[C@H](N(C)C)[C@H]2O)[C@](C)(OC)C[C@@H](C)C(=O)[C@H](C)[C@@H](O)[C@]1(C)O [CLARITHROMYCIN]
inhibitor [+] | inhibitor [+] | BANPEIYU
inhibitor [+] | inhibitor [+] | GRAPEFRUIT JUICE

Reference: ChEMBL document CHEMBL2073837, “Inhibitory effects of pomelo on the metabolism of tacrolimus and the activities of CYP3A4 and P-glycoprotein” (Drug Metab Dispos, 2004)
